Results as given in article doi:10.1101/2024.08.19.608619, “Discovery of potent SARS-CoV-2 nsp3 macrodomain inhibitors uncovers lack of translation to cellular antiviral response” (bioRxiv, 2024).
Like-named read-outs stand apart in the source and are kept apart here.

Assays:
SARS-CoV-2 nsp3-mac1 [1] = biological target: T1, SARS-CoV-2 nsp3-mac1 (Severe acute respiratory syndrome coronavirus 2, UniProt P0DTD1); experiment: biochemical; design: SARS-CoV-2 nsp3 macrodomain TR-FRET single point, per cent inhibition, n=2
SARS-CoV-2 nsp3-mac1 [2] = biological target: T1, SARS-CoV-2 nsp3-mac1; experiment: biochemical; format: biochemical; conditions: SARS-CoV-2 nsp3 macrodomain TR-FRET single point
[3] = read-out: perc_inhibition_mean, batch_name=ASAP-0000460-001
[4] = read-out: perc_inhibition_mean, batch_name=ASAP-0000312-001
[5] = read-out: perc_inhibition_mean, batch_name=ASAP-0000342-001
[6] = read-out: perc_inhibition_mean, batch_name=ASAP-0000326-001
[7] = read-out: perc_inhibition_mean, batch_name=ASAP-0000249-001
[8] = read-out: perc_inhibition_mean, batch_name=ASAP-0000464-001
[9] = read-out: perc_inhibition_mean, batch_name=ASAP-0000465-001
[10] = read-out: perc_inhibition_mean, batch_name=ASAP-0000258-001
[11] = read-out: perc_inhibition_mean, batch_name=ASAP-0000449-001
[12] = read-out: perc_inhibition_mean, batch_name=ASAP-0000365-001

C[C@@H](NC(=O)c1ncnc2[nH]ccc12)c1ncc(C(=O)O)c(=O)[nH]1 [ASAP-0000460]
inhibition at 49.75 µM (SARS-CoV-2 nsp3-mac1 [1]; [3]): 4.87%
inhibition at 99.5 µM (SARS-CoV-2 nsp3-mac1 [1]; [3]): 10.7%
perc_inhibition_mean (SARS-CoV-2 nsp3-mac1 [2]; concentration 49.75 uM): 4.872%
perc_inhibition_mean (SARS-CoV-2 nsp3-mac1 [2]; concentration 99.5 uM): 10.734%

C[C@]1(C(=O)N(CCC(=O)N2CCNCC2)Cc2cccc(Cl)c2)CCCN1 [ASAP-0000312]
inhibition at 49.75 µM (SARS-CoV-2 nsp3-mac1 [1]; [4]): 1.4%
inhibition at 99.5 µM (SARS-CoV-2 nsp3-mac1 [1]; [4]): 2.13%
perc_inhibition_mean (SARS-CoV-2 nsp3-mac1 [2]; concentration 49.75 uM, n=2): 1.403%
perc_inhibition_mean (SARS-CoV-2 nsp3-mac1 [2]; concentration 99.5 uM, n=2): 2.129%

O=C1CC[C@H](COC(=O)c2ncnc3[nH]ccc23)CCN1 [ASAP-0000091]
inhibition at 50 µM (SARS-CoV-2 nsp3-mac1 [1]; read-out: perc_inhibition_mean, batch_name=ASAP-0000091-001): -7.87%
perc_inhibition_mean (SARS-CoV-2 nsp3-mac1 [2]; concentration 50.0 uM): -7.865%

O=C(NCc1nc(-c2ccco2)n[nH]1)c1cc2nccn2c(=O)[nH]1 [ASAP-0000068]
inhibition at 50 µM (SARS-CoV-2 nsp3-mac1 [1]; read-out: perc_inhibition_mean, batch_name=ASAP-0000068-001): -5.42%
perc_inhibition_mean (SARS-CoV-2 nsp3-mac1 [2]; concentration 50.0 uM): -5.425%

NS(=O)(=O)N1CCCN(c2ncnc3[nH]c(I)cc23)CC1 [ASAP-0000017]
inhibition at 50 µM (SARS-CoV-2 nsp3-mac1 [1]; read-out: perc_inhibition_mean, batch_name=ASAP-0000017-001): 2.29%
perc_inhibition_mean (SARS-CoV-2 nsp3-mac1 [2]; concentration 50.0 uM): 2.291%

O=C(Nc1ccccc1)Nc1ccc(C(=O)Nc2cnnc(Cl)c2)cc1 [ASAP-0000342]
inhibition at 49.75 µM (SARS-CoV-2 nsp3-mac1 [1]; [5]): -1.72%
inhibition at 99.5 µM (SARS-CoV-2 nsp3-mac1 [1]; [5]): -0.19%
perc_inhibition_mean (SARS-CoV-2 nsp3-mac1 [2]; concentration 49.75 uM, n=2): -1.718%
perc_inhibition_mean (SARS-CoV-2 nsp3-mac1 [2]; concentration 99.5 uM, n=2): -0.19%

Cc1cccc(OCCNc2ncnc3nc[nH]c23)c1 [ASAP-0000014]
inhibition at 50 µM (SARS-CoV-2 nsp3-mac1 [1]; read-out: perc_inhibition_mean, batch_name=ASAP-0000014-001): 3.91%
perc_inhibition_mean (SARS-CoV-2 nsp3-mac1 [2]; concentration 50.0 uM): 3.91%

O=C(CCN(Cc1cccc(Cl)c1)C(=O)C1(O)CCCC1)N1CCNCC1 [ASAP-0000326]
inhibition at 49.75 µM (SARS-CoV-2 nsp3-mac1 [1]; [6]): -1.21%
inhibition at 99.5 µM (SARS-CoV-2 nsp3-mac1 [1]; [6]): -1.78%
perc_inhibition_mean (SARS-CoV-2 nsp3-mac1 [2]; concentration 49.75 uM, n=2): -1.213%
perc_inhibition_mean (SARS-CoV-2 nsp3-mac1 [2]; concentration 99.5 uM, n=2): -1.781%

OC[C@H](Cc1ccccc1)Nc1ncnc2[nH]ccc12 [ASAP-0000249]
inhibition at 50 µM (SARS-CoV-2 nsp3-mac1 [1]; [7]): -1.29%
inhibition at 100 µM (SARS-CoV-2 nsp3-mac1 [1]; [7]): 8.93%
perc_inhibition_mean (SARS-CoV-2 nsp3-mac1 [2]; concentration 50.0 uM): -1.29%
perc_inhibition_mean (SARS-CoV-2 nsp3-mac1 [2]; concentration 100.0 uM): 8.928%

c1ccc2c(-c3c[nH]c4ncccc34)n[nH]c2c1 [ASAP-0000092]
inhibition at 50 µM (SARS-CoV-2 nsp3-mac1 [1]; read-out: perc_inhibition_mean, batch_name=ASAP-0000092-001): -7.25%
perc_inhibition_mean (SARS-CoV-2 nsp3-mac1 [2]; concentration 50.0 uM): -7.254%

C[C@@H](Cc1ccc(Cl)s1)Nc1ccc([C@@H](CC(=O)O)NC(=O)c2c[nH]c3ncncc23)cc1 [ASAP-0000464]
inhibition at 49.75 µM (SARS-CoV-2 nsp3-mac1 [1]; [8]): -1.54%
inhibition at 99.5 µM (SARS-CoV-2 nsp3-mac1 [1]; [8]): 1.95%
perc_inhibition_mean (SARS-CoV-2 nsp3-mac1 [2]; concentration 49.75 uM): -1.543%
perc_inhibition_mean (SARS-CoV-2 nsp3-mac1 [2]; concentration 99.5 uM): 1.952%

CC(C)[C@H]1CN(c2ncnc3[nH]ccc23)[C@H]1C(C)C [ASAP-0000465]
inhibition at 49.75 µM (SARS-CoV-2 nsp3-mac1 [1]; [9]): 0.348%
inhibition at 99.5 µM (SARS-CoV-2 nsp3-mac1 [1]; [9]): -2.2%
perc_inhibition_mean (SARS-CoV-2 nsp3-mac1 [2]; concentration 49.75 uM): 0.348%
perc_inhibition_mean (SARS-CoV-2 nsp3-mac1 [2]; concentration 99.5 uM): -2.201%

O=c1[nH]cnc2[nH]cc(-c3ccoc3)c12 [ASAP-0000258]
inhibition at 50 µM (SARS-CoV-2 nsp3-mac1 [1]; [10]): -14.5%
inhibition at 100 µM (SARS-CoV-2 nsp3-mac1 [1]; [10]): -13.8%
perc_inhibition_mean (SARS-CoV-2 nsp3-mac1 [2]; concentration 50.0 uM, n=2): -14.47%
perc_inhibition_mean (SARS-CoV-2 nsp3-mac1 [2]; concentration 100.0 uM, n=2): -13.824%

COc1cc(CNc2cnc3[nH]ncc3c2)ccc1Cl [ASAP-0000029]
inhibition at 50 µM (SARS-CoV-2 nsp3-mac1 [1]; read-out: perc_inhibition_mean, batch_name=ASAP-0000029-001): -2.79%
perc_inhibition_mean (SARS-CoV-2 nsp3-mac1 [2]; concentration 50.0 uM): -2.794%

O=C(Cc1ccc(F)cc1)Nc1ccc2[nH]ncc2c1 [ASAP-0000032]
inhibition at 50 µM (SARS-CoV-2 nsp3-mac1 [1]; read-out: perc_inhibition_mean, batch_name=ASAP-0000032-001): 1.14%
perc_inhibition_mean (SARS-CoV-2 nsp3-mac1 [2]; concentration 50.0 uM): 1.139%

Cc1nc(Nc2cnn(CCO)c2)c2cc[nH]c2n1 [ASAP-0000046]
inhibition at 50 µM (SARS-CoV-2 nsp3-mac1 [1]; read-out: perc_inhibition_mean, batch_name=ASAP-0000046-001): -6.15%
perc_inhibition_mean (SARS-CoV-2 nsp3-mac1 [2]; concentration 50.0 uM): -6.147%

COc1cccc2cc(CNc3cnc4[nH]ncc4c3)oc12 [ASAP-0000028]
inhibition at 50 µM (SARS-CoV-2 nsp3-mac1 [1]; read-out: perc_inhibition_mean, batch_name=ASAP-0000028-001): -4.29%
perc_inhibition_mean (SARS-CoV-2 nsp3-mac1 [2]; concentration 50.0 uM): -4.293%

Cn1nc(C(=O)N2CCC(c3ccn4ncc(C(=O)N5CCCCC5)c4c3)CC2)cc1C(=O)O [ASAP-0000449]
inhibition at 49.75 µM (SARS-CoV-2 nsp3-mac1 [1]; [11]): 42.7%
inhibition at 99.5 µM (SARS-CoV-2 nsp3-mac1 [1]; [11]): 59.7%
perc_inhibition_mean (SARS-CoV-2 nsp3-mac1 [2]; concentration 49.75 uM): 42.655%
perc_inhibition_mean (SARS-CoV-2 nsp3-mac1 [2]; concentration 99.5 uM): 59.743%

Cc1ccc2ccccc2c1-c1ncnc2[nH]ccc12 [ASAP-0000365]
inhibition at 49.75 µM (SARS-CoV-2 nsp3-mac1 [1]; [12]): -5.32%
inhibition at 99.5 µM (SARS-CoV-2 nsp3-mac1 [1]; [12]): -9.1%
perc_inhibition_mean (SARS-CoV-2 nsp3-mac1 [2]; concentration 49.75 uM): -5.321%
perc_inhibition_mean (SARS-CoV-2 nsp3-mac1 [2]; concentration 99.5 uM): -9.099%
